Reference: ChEMBL document CHEMBL5728826, “Benzimidazole compounds and derivatives as EGFR inhibitors” (2021)

Biological target: Epidermal growth factor receptor (Homo sapiens, UniProt P00533)
Test: Biochemical EGFR Inhibition Assays ([…]): 5 μL of EGFR enzyme form in assay buffer (50 mM HEPES pH 7.3, 10 mM MgCl2, 1 mM EGTA, 0.01% Tween 20, 2 mM DTT) are dispensed into columns 1-23, than 5 μL of ATP and ULight-poly-GT substrate (PerkinElmer; TRF0100-M) mix in assay buffer is added to all wells (final assay concentration of the ULight-poly-GT substrate 200 nM). Each of the different …

Sequence of Epidermal growth factor receptor (P00533 whole entry): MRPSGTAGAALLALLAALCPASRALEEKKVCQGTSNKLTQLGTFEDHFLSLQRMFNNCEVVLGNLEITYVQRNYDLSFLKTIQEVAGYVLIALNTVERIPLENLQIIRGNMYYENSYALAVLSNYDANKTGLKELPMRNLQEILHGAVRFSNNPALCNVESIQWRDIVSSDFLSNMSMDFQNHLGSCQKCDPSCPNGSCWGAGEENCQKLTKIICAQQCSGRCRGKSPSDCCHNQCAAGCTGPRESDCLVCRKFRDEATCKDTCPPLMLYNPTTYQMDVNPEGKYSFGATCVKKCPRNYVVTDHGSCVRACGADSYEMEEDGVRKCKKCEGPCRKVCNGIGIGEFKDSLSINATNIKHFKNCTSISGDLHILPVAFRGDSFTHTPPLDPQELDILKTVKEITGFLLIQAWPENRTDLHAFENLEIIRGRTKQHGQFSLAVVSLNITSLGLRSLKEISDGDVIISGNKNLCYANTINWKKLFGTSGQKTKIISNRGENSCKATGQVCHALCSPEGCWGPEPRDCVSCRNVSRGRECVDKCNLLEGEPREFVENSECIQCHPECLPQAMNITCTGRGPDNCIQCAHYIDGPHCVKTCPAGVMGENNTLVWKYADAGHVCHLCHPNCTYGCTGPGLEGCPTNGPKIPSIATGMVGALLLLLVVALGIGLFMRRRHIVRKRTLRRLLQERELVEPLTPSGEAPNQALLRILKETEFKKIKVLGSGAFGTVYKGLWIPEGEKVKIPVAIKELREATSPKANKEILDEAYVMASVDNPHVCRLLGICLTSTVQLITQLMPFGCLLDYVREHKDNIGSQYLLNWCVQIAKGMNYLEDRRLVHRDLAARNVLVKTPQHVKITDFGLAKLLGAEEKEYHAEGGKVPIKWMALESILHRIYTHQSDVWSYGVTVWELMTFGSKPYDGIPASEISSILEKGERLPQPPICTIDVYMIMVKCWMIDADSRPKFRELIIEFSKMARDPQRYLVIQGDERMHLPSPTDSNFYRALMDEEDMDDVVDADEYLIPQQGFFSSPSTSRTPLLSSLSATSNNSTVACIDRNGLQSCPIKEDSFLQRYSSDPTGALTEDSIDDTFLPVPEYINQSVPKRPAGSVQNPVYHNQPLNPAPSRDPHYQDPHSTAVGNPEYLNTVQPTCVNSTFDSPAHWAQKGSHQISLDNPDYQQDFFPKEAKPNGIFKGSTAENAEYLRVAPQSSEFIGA

IC50 [nM]	Structure (SMILES)
> 100000	Cn1cc(-c2cc(C(=O)/N=c3\[nH]c4ccccc4n3CC(C)(C)O)ccn2)cn1
217	COc1ccncc1-c1cc(C(=O)/N=c2\[nH]c3cc(C4CCN(C(C)=O)CC4)ccc3n2CC(C)(C)O)ccn1
